Test results reported in US11530186B2, “Inhibitors for the β-catenin / T-cell factor protein-protein interaction” (H. LEE MOFFITT CANCER CENTER AND RESEARCH INSTITUTE, INC., priority 2018, dated 2022).
Read-outs that look alike come from different tables or passages of the source.

Target: T1, β-catenin/Tcf protein-protein interaction (Homo sapiens, UniProt P35222)
T1 construct: Wild-type β-catenin (residues 138-781) were cloned into a pET-28b vector; 6×histidine (C); made in house; host or cells: E. coli BL21 DE3
T1 sequence (P35222 138-781): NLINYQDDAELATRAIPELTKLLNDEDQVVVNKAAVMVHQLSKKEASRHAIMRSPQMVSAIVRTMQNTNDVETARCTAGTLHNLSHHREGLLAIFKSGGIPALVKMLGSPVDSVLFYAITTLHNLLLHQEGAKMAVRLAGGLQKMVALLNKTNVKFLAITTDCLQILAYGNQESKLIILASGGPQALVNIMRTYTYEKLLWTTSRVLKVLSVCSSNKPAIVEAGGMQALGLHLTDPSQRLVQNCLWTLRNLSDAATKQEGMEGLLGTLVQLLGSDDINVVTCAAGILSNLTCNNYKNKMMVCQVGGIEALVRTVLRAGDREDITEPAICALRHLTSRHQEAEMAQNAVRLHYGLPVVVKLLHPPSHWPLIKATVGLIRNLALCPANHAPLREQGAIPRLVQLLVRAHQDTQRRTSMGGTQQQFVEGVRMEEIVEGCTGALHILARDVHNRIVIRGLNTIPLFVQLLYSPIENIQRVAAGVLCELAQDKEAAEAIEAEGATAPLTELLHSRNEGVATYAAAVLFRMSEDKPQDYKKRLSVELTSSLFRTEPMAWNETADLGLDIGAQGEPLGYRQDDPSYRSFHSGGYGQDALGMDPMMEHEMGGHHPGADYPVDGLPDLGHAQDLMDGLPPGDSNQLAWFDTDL
Experiment: FP competitive inhibition assay
Assay type: binding
Method: Protein Expression and Purification. Wild-type β-catenin (residues 138-781) were cloned into a pET-28b vector carrying a C-terminal 6×histidine (Novagen) and transformed into E. coli BL21 DE3 (Novagen). Cells were cultured in LB medium with 30 μg/mL kanamycin until the OD600 was approximately 0.8, and then protein expression was induced with 400 μM of IPTG at 20° C. overnight. Cells were lysed by sonication. The proteins were purified by Ni-NTA affinity chromatography (30210, Qiagen) and dialyzed against a buffer containing 20 mM of Tris (pH 8.8), 100 mM NaCl, 10% glycerol, and 3 mM DTT. The purity of β-catenin was set to >95% as determined by SDS-PAGE gel analysis. Native non-denaturing gel electrophoresis experiment and the thermal-shift assay on an iCycler iQ Real Time Detection System (Bio-Rad) were performed for each purified protein. In the thermal shift assay, protein unfolding was evaluated through measuring the fluorescence changes of fluorescent dye Sypro Orange with purified β-catenin proteins. A temperature increment of 1° C./min was applied to monitor protein stability and detect protein aggregation. CD spectra were measured on a J-815 spectropolarimeter (Jasco). All spectra were recorded using a 1 mm path-length quartz cell. The CD spectra were averaged over three scans, and the wavelength was scanned from 260 to 190 nm in step of 1 nm. All spectra were recorded at room temperature, and the baseline was corrected by subtracting the CD spectra of a blank control containing all of the substances except protein. Samples were prepared at a concentration around 1-5 μM in a buffer of 10 mM potassium phosphate and 100 mM potassium fluoride at pH 7.0 to ensure that the transmission of light through the sample was not restricted. All proteins were stable, and no aggregation was observed under storage or assay conditions. Proteins were aliquoted and stored at −80° C. C-terminally fluorescein-labeled human Tcf4 (residues 7-51) was synthesized and HPLC purified with purity >95%. The structures were validated by LC/MS (liquid chromatography/mass spectrometry).
FP Assays. The procedures for the FP competitive inhibition assays have been described previously (Zhang, M.; Huang, Z.; Yu, B.; Ji, H. New homogeneous high-throughput assays for inhibitors of β-catenin/Tcf protein-protein interactions Anal. Biochem. 2012, 424, 57-63; Zhang, M.; Catrow, J. L.; Ji, H. High-throughput selectivity assays for small-molecule inhibitors of β-catenin/T-cell factor protein-protein interactions. ACS Med. Chem. Lett. 2013, 4, 306-311). Briefly, all of the tested compounds were prepared as 10 mM DMSO stocks. In the primary screen, the concentrations of the compounds and DMSO were set to 50 μM and 1% (v/v). Only the compounds which FP signal decreases were greater than 50% in the single-point β-catenin/Tcf assay were evaluated by counter screen. […] In the FP competitive inhibition assay, 10 nM human β-catenin and 2.5 nM of C-terminally fluorescein-labeled human Tcf4 were incubated in an assay buffer of 137 mM NaCl, 2.7 mM KCl, 10 mM Na2HPO4, 2 mM KH2PO4, 100 μg/mL of bovine γ-globulin, and 0.01% Triton-X100 for 15 min at 4° C. Bovine γ-globulin and Triton-X100 were included in the assay buffer to decrease the likelihood of compound acting by aggregate formation. Different concentrations of the tested compounds in the assay buffer were added to each test plate to make a final volume of 100 μL. Each assay plate was covered black and gently mixed on an orbital shaker at 4° C. for 1.5 h to reach equilibrium before the polarization values were read. The IC50 value was determined by nonlinear least-square analysis of GraphPad Prism 5.0. The Ki values were derived (Nikolovska-Coleska, Z.; Wang, R.; Fang, X.; Pan, H.; Tomita, Y.; Li, P.; Roller, P. P.; Krajewski, K.; Saito, N. G.; Stuckey, J. A.; Wang, S. Development and optimization of a binding assay for the XIAP BIR3 domain using fluorescence polarization. Anal. Biochem. 2004, 332, 261-273). […]

[1] = Assay 1, mean ± SD (n = 3), read-out: Ki ± SD, Assay 1
[2] = Assay 2, mean ± SD (n = 3), read-out: Ki ± SD, Assay 2
[3] = Assay 3, mean ± SD (n = 3), read-out: Ki ± SD, Assay 3
[4] = Assay 4, mean ± SD (n = 3), read-out: Ki ± SD, Assay 4

Ki [1] [µM] | Ki [2] [µM] | Ki [3] [µM] | Ki [4] [µM] | SMILES
22 ± 3.1 |  |  |  | O=C(O)c1ccc2c(c1)c(CCc1ccc(OC(F)(F)F)cc1)cn2CCc1nn[nH]n1 [Compound 10, 1-(2-(2H-tetrazol-5-yl)ethyl)-3-(4-(trifluoromethoxy)phenethyl)-1H-indole-5-carboxylic acid]
94 ± 9.6 |  |  |  | O=C(O)CCn1cc(CCc2ccc(Cl)cc2)c2cc(C(=O)O)ccc21 [Compound 23, 1-(2-carboxyethyl)-3-(4-chlorophenethyl)-1H-indole-5-carboxylic acid]
3.4 ± 0.86 | 1.3 ± 0.066 |  |  | O=C(O)c1ccc2c(c1)c(CCc1ccc3c(c1)OCCO3)c(-c1ccsc1)n2CCc1nn[nH]n1 [Compound 87, 1-(2-(2H-tetrazol-5-yl)ethyl)-3-(2-(2,3-dihydrobenzo[b][1,4]dioxin-6-yl)ethyl)-2-(thiophen-3-yl)-1H-indole-5-carboxylic acid]
29 ± 1.5 | > 51 |  |  | O=C(O)c1ccc2c(c1)c(CCc1nccs1)cn2CCc1nn[nH]n1 [Compound 15, 1-(2-(2H-tetrazol-5-yl)ethyl)-3-(2-(thiazol-2-yl)ethyl)-1H-indole-5-carboxylic acid]
31 ± 5.9 |  |  |  | O=C(O)c1ccc2c(c1)c(CCc1ccc(C(F)(F)F)cc1)cn2CCc1nn[nH]n1 [Compound 9, 1-(2-(2H-tetrazol-5-yl)ethyl)-3-(4-(trifluoromethyl)phenethyl)-1H-indole-5-carboxylic acid]
6.7 ± 1.1 | 2.7 ± 0.54 |  |  | O=C(O)c1ccc2c(c1)c(CCc1ccc(F)cc1)c(CCc1nc3ccccc3s1)n2CCc1nn[nH]n1 [Compound 26, 1-(2-(2H-tetrazol-5-yl)ethyl)-2-(2-(benzo[d]thiazol-2-yl)ethyl)-3-(4-fluorophenethyl)-1H-indole-5-carboxylic acid]
3.7 ± 0.19 | 32 ± 3.8 |  |  | COc1ccc2sc(CCc3c(CCc4ccc(Cl)cc4)c4cc(C(=O)NCC(O)CO)ccc4n3CCc3nn[nH]n3)nc2c1 (stereo not shown) [Compound 66, 1-(2-(2H-tetrazol-5-yl)ethyl)-3-(4-chlorophenethyl)-N-(2,3-dihydroxypropyl)-2-(2-(5-methoxybenzo[d]thiazol-2-yl)ethyl)-1H-indole-5-carboxamide]
32 ± 3.9 |  |  |  | Cc1ccc(CCc2cn(CCc3nn[nH]n3)c3ccc(C(=O)O)cc23)nc1 [Compound 17, 1-(2-(2H-tetrazol-5-yl)ethyl)-3-(2-(5-methylpyridin-2-yl)ethyl)-1H-indole-5-carboxylic acid]
0.6 ± 0.039 |  |  |  | COc1ccc2nc(C#Cc3c(CCc4ccc(Cl)cc4)c4cc(C(=O)O)ccc4n3CCc3nn[nH]n3)sc2c1 [Compound 72, 1-(2-(2H-tetrazol-5-yl)ethyl)-3-(4-chlorophenethyl)-2-((6-methoxybenzo[d]thiazol-2-yl)ethynyl)-1H-indole-5-carboxylic acid]
62 ± 12 |  |  |  | O=C(O)c1ccc2c(c1)c(CCc1ccccc1)cn2CCc1nn[nH]n1 [Compound 5, 1-(2-(2H-tetrazol-5-yl)ethyl)-3-phenethyl-1H-indole-5-carboxylic acid]
6.6 ± 0.28 | 7.6 ± 0.65 | 10 ± 0.95 | 5.7 ± 1.1 | O=C(O)c1ccc2c(c1)c(CCC1CCOCC1)cn2CCc1nn[nH]n1 [Compound 21, 1-(2-(2H-tetrazol-5-yl)ethyl)-3-(2-(tetrahydro-2H-pyran-4-yl)ethyl)-1H-indole-5-carboxylic acid]
3.1 ± 0.068 | 15 ± 2.8 |  |  | O=C(NCc1ccon1)c1ccc2c(c1)c(CCC1CCCCC1)c(-c1ccsc1)n2CCc1nn[nH]n1 [Compound 95, 1-(2-(2H-tetrazol-5-yl)ethyl)-3-(2-cyclohexylethyl)-N-(isoxazol-3-ylmethyl)-2-(thiophen-3-yl)-1H-indole-5-carboxamide]
27 ± 4 |  |  |  | Cc1ccc(CCc2cn(CCc3nn[nH]n3)c3ccc(C(=O)O)cc23)cc1 [Compound 7, 1-(2-(2H-tetrazol-5-yl)ethyl)-3-(4-methylphenethyl)-1H-indole-5-carboxylic acid]
17 ± 1.6 |  |  |  | Cc1ccc(CCc2c(-c3cn[nH]c3)n(CCc3nn[nH]n3)c3ccc(C(=O)NCc4ccon4)cc23)cc1 [Compound 97, 1-(2-(2H-tetrazol-5-yl)ethyl)-N-(isoxazol-3-ylmethyl)-3-(4-methylphenethyl)-2-(1H-pyrazol-4-yl)-1H-indole-5-carboxamide]
1.6 ± 0.11 |  |  |  | Cc1ccc(CCc2c(-c3cccs3)n(CCc3nn[nH]n3)c3ccc(C(=O)O)cc23)cc1 [Compound 77, 1-(2-(2H-tetrazol-5-yl)ethyl)-3-(4-methylphenethyl)-2-(thiophen-2-yl)-1H-indole-5-carboxylic acid]
990 ± 36 |  |  |  | O=C(O)c1cccc(CCc2nn[nH]n2)c1 [Compound 1, 3-(2-(2H-tetrazol-5-yl)ethyl)benzoic acid]
348 ± 1.3 | 780 ± 100 |  |  | Cc1cn(CCc2nn[nH]n2)c2ccccc12 [Compound 2, 1-(2-(2H-tetrazol-5-yl)ethyl)-3-methyl-1H-indole]
28 ± 6.8 |  |  |  | O=C(O)CCn1c(CCc2nc3ccccc3s2)c(CCc2ccccc2)c2cc(C(=O)O)ccc21 [Compound 37, 2-(2-(Benzo[d]thiazol-2-yl)ethyl)-1-(2-carboxyethyl)-3-phenethyl-1H-indole-5 carboxylic acid]
35 ± 1.2 |  |  |  | O=C(O)c1ccc2c(c1)c(CCc1ccc3c(c1)OCCO3)cn2CCc1nn[nH]n1 [Compound 22, 1-(2-(2H-tetrazol-5-yl)ethyl)-3-(2-(2,3-dihydrobenzo[b][1,4]dioxin-6-yl)ethyl)-1H-indole-5-carboxylic acid]
2 ± 0.4 | 4.1 ± 0.6 | 4.1 ± 1.2 | 1.6 ± 0.12 | COc1ccc2sc(CCc3c(CCc4ccc(Cl)cc4)c4cc(C(=O)O)ccc4n3CCc3nn[nH]n3)nc2c1 [Compound 31, 1-(2-(2H-tetrazol-5-yl)ethyl)-3-(4-chlorophenethyl)-2-(2-(5-methoxybenzo[d]thiazol-2-yl)ethyl)-1H-indole-5-carboxylic acid]

SMILES | Ki [1] [µM] | Ki [2] [µM] | Ki [3] [µM] | Ki [4] [µM]
COc1ccc2sc(CCc3c(CCc4ccc(Cl)cc4)c4cc(C(=O)NCC5CCNCC5)ccc4n3CCc3nn[nH]n3)nc2c1 [Compound 67, 4-((1-(2-(2H-tetrazol-5-yl)ethyl)-3-(4-chlorophenethyl)-2-(2-(5-methoxybenzo[d]thiazol-2-yl)ethyl)-1H-indole-5-carboxamido)methyl)piperidin-1-ium] | 5.9 ± 0.37 | > 22 |  | 
